Measured values from patent US12037345B2, “Heterobicyclic compounds for inhibiting the activity of SHP2” (TAIHO PHARMACEUTICAL CO., LTD., priority 2018, dated 2024).

How the values were obtained:
[1] = system: pERK (phospho-p44/42 ERK) in HCC827 cells; assay: Cellular pERK Inhibition Assay, Method A (In-Cell Western); type: cell-based; conditions: Homo sapiens, Table 19, head prints unit as "-M", read-out: pERK (IC50) Method A
Method: Cellular pERK Inhibition Assay
pERK levels were determined using the In-Cell Western assay. HCC827 cells (ATCC, Manassas, USA) were seeded into 384-well plates at a density of 1×10^4 cells/well in RPMI1640 medium supplemented with 10% FBS and incubated 24h. Compounds were diluted first in DMSO and then into serum-free medium, before being added to cells in quadruplicate to give a final concentration of 0.2% DMSO. Plates were incubated at 37° C. for the indicated time in a humidified atmosphere of 5% CO2 in air.
Following compound treatment, cells were fixed with formalin neutral buffer solution for 20 minutes at room temperature. Plates were washed three times with 0.1% Triton-X in PBS and cells were blocked for 1 hour with Odyssey blocking buffer (LI-COR, #927-40000). After shaking out blocking buffer, cells were incubated with phospho-p44/42 ERK antibody (Cell Signalling Technology, #4370, 1:200) diluted in Odyssey blocking buffer at 4° C. overnight. Plates were washed again and cells were incubated for 1 hour with Goat anti-Rabbit […] (LI-COR, #926-32211, 1:800) diluted in Odyssey blocking buffer. After washing and removing wash solution completely using a centrifuge machine, cells were scanned on the Odyssey (LI-COR), following the manufacturer's instructions. The average signal from blank wells (no cells added) was subtracted from the signals from each sample well. Levels of pERK were then expressed as percent of control, using DMSO treated samples as control. The relative IC50 values were calculated in quadruplicate from the normalized dose-response plots using four parameter logistic curve fit. The Experiment for each compound was carried out in one time or multiple times, and the IC50 values were shown as a single value (for a compound measured in a single experiment) or an average value (for a compound measured in multiple experiments).

SHP2 = SHP2 (Homo sapiens (Human), UniProt Q06124); assay: SHP2 Biochemical Assay (DiFMUP conversion, pIRS1-activated); conditions: Table 19; head prints unit as "-M"
Method: SHP2 activity was monitored by measuring the conversion of the surrogate substrate 6,8-difluoromethylumbelliferyl phosphate (DiFMUP) to the fluorescent product, 6,8-difluoromethylumbelliferone (DiFMU).
SHP2 was pre-incubated with test compounds and the activating peptide pIRS1 (H2N-LN(pY)IDLDLV-(PEG)8-LST(pY)ASINFQK-amide) for 30 min, prior to addition of the 6,8-difluoromethylumbelliferyl phosphate (DiFMUP), (Thermo Fisher D6567). Final assay concentrations were 10 pM SHP2, […] pIRS1 peptide, 50 μM DiFMUP, 25 mM Bis-Tris propane, pH 7.0, 150 mM NaCl, 0.05% (v/v) Tween-20, 0.5 mM TCEP and 5% (v/v) DMSO. Rates of reaction were then measured over 30 min by monitoring fluorescence on a BMG Pherastar reader at excitation 360 nm/emission 450 nm. IC50 values were calculated in singlicate from the normalized dose-response plots using four parameter logistic curve fit. The Experiment for each compound was carried out in one time or multiple times, and the IC50 values were shown as a single value (for a compound measured in a single experiment) or an average value (for a compound measured in multiple experiments).

Chain of SHP2 (Q06124 whole entry): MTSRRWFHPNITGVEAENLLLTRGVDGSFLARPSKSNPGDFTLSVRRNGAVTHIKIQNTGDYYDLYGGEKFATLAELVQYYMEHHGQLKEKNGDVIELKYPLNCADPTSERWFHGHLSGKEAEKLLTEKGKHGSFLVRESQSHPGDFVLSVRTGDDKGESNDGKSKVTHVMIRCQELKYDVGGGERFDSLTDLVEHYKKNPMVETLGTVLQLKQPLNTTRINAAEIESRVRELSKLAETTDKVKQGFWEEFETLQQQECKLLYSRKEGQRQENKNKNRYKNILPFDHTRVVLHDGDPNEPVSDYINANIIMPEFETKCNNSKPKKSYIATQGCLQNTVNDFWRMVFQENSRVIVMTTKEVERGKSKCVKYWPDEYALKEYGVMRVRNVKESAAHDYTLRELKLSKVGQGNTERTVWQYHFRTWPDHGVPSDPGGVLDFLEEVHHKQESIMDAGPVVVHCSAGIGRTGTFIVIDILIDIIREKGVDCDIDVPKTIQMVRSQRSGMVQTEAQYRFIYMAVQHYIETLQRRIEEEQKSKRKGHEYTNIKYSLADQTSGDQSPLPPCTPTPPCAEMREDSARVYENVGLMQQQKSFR

Row | Compound | IC50 [1] [µM] | IC50 (SHP2) [µM]
1 | Cn1cc2c(Cl)c(-c3c[nH]c4nc(N5[C@@H]6CC[C@H]5C[C@@H](N)C6)n(C)c(=O)c34)ccc2n1 [Example 8, 2-(endo-3-amino-8-azabicyclo[3.2.1]octan-8-yl)-5-(4-chloro-2-methyl-2H-indazol-5-yl)-3-methyl-3,7-dihydro-4H-pyrrolo[2,3-d]pyrimidin-4-one] | 0.095 | 0.011
2 | Cn1c(N2[C@@H]3CC[C@H]2C[C@@H](N)C3)nc2[nH]cc(-c3ccc4nn(C(C)(C)C)cc4c3Cl)c2c1=O [Example 9, 2-(endo-3-amino-8-azabicyclo[3.2.1]octan-8-yl)-5-(2-(tert-butyl)-4-chloro-2H-indazol-5-yl)-3-methyl-3,7-dihydro-4H-pyrrolo[2,3-d]pyrimidin-4-one] | 1.2 | 0.094
3 | Cn1cc2c(Cl)c(-c3c[nH]c4nc(N5[C@@H]6CC[C@H]5C[C@H](N)C6)n(C)c(=O)c34)ccc2n1 [Example 10, 2-(exo-3-amino-8-azabicyclo[3.2.1]octan-8-yl)-5-(4-chloro-2-methyl-2H-indazol-5-yl)-3-methyl-3,7-dihydro-4H-pyrrolo[2,3-d]pyrimidin-4-one] | 0.17 | 0.0085
4 | CCn1cc2c(Cl)c(-c3c[nH]c4nc(N5CCC6(CCC[C@H]6N)CC5)n(C)c(=O)c34)ccc2n1 [Example 11, (R)-2-(1-amino-8-azaspiro[4.5]decan-8-yl)-5-(4-chloro-2-ethyl-2H-indazol-5-yl)-3-methyl-3,7-dihydro-4H-pyrrolo[2,3-d]pyrimidin-4-one] | 0.053 | 0.0063
5 | CCn1cc2c(Cl)c(-c3c[nH]c4nc(N5CCC6(CC5)COC[C@H]6N)n(C)c(=O)c34)ccc2n1 [Example 12, (S)-2-(4-amino-2-oxa-8-azaspiro[4.5]decan-8-yl)-5-(4-chloro-2-ethyl-2H-indazol-5-yl)-3-methyl-3,7-dihydro-4H-pyrrolo[2,3-d]pyrimidin-4-one] | 0.12 | 0.011
6 | CCn1cc2c(Cl)c(-c3c[nH]c4nc(N5[C@@H]6CC[C@H]5C[C@@H](NC)C6)n(C)c(=O)c34)ccc2n1 [Example 13, 5-(4-chloro-2-ethyl-2H-indazol-5-yl)-3-methyl-2-(endo-3-(methylamino)-8-azabicyclo[3.2.1]octan-8-yl)-3,7-dihydro-4H-pyrrolo[2,3-d]pyrimidin-4-one] | 0.34 | 0.019
7 | CN[C@H]1C[C@H]2CC[C@@H](C1)N2c1nc2[nH]cc(-c3ccc4nn(C)cc4c3Cl)c2c(=O)n1C [Example 14, 5-(4-chloro-2-methyl-2H-indazol-5-yl)-3-methyl-2-(endo-3-(methylamino)-8-azabicyclo[3.2.1]octan-8-yl)-3,7-dihydro-4H-pyrrolo[2,3-d]pyrimidin-4-one] | 0.31 | 0.024
8 | CCn1cc2c(Cl)c(-c3c[nH]c4nc(N5[C@@H]6CC[C@H]5C[C@@](C)(N)C6)n(C)c(=O)c34)ccc2n1 [Example 15, 2-(endo-3-amino-3-methyl-8-azabicyclo[3.2.1]octan-8-yl)-5-(4-chloro-2-ethyl-2H-indazol-5-yl)-3-methyl-3,7-dihydro-4H-pyrrolo[2,3-d]pyrimidin-4-one] | 0.5 | 0.017
9 | Cn1cc2c(Cl)c(-c3c[nH]c4nc(N5[C@@H]6CC[C@H]5C[C@@](C)(N)C6)n(C)c(=O)c34)ccc2n1 [Example 16, 2-(endo-3-amino-3-methyl-8-azabicyclo[3.2.1]octan-8-yl)-5-(4-chloro-2-methyl-2H-indazol-5-yl)-3-methyl-3,7-dihydro-4H-pyrrolo[2,3-d]pyrimidin-4-one] | 0.11 | 0.011
10 | Cn1cc2c(Cl)c(-c3c[nH]c4nc(N5CC6COCC(C5)N6)n(C)c(=O)c34)ccc2n1 [Example 17, 2-(3-oxa-7,9-diazabicyclo[3.3.1]nonan-7-yl)-5-(4-chloro-2-methyl-2H-indazol-5-yl)-3-methyl-3,7-dihydro-4H-pyrrolo[2,3-d]pyrimidin-4-one] | 0.8 | 0.043
11 | Cn1cc2c(Cl)c(-c3c[nH]c4nc(N5C[C@@H]6C[C@H]5CN6)n(C)c(=O)c34)ccc2n1 [Example 21, 2-((1S,4S)-2,5-diazabicyclo[2.2.1]heptan-2-yl)-5-(4-chloro-2-methyl-2H-indazol-5-yl)-3-methyl-3,7-dihydro-4H-pyrrolo[2,3-d]pyrimidin-4-one] | 0.32 | 0.011
12 | Cn1cc2c(Cl)c(-c3c[nH]c4nc(N5C6COCC5CC(N)C6)n(C)c(=O)c34)ccc2n1 (stereo not drawn) [Example 22, 2-(7-amino-3-oxa-9-azabicyclo[3.3.1]nonan-9-yl)-5-(4-chloro-2-methyl-2H-indazol-5-yl)-3-methyl-3,7-dihydro-4H-pyrrolo[2,3-d]pyrimidin-4-one] | 2.2 | 0.014
13 | Cn1cc2c(Cl)c(-c3c[nH]c4nc(N5C[C@H]6C[C@@H]5CN6)n(C)c(=O)c34)ccc2n1 [Example 23, 2-((1R,4R)-2,5-diazabicyclo[2.2.1]heptan-2-yl)-5-(4-chloro-2-methyl-2H-indazol-5-yl)-3-methyl-3,7-dihydro-4H-pyrrolo[2,3-d]pyrimidin-4-one] | 4.1 | 0.12
14 | Cn1cc2c(Cl)c(-c3c[nH]c4nc(N5C[C@H]6CC[C@@H](C5)[C@@H]6N)n(C)c(=O)c34)ccc2n1 [Example 24, 2-(exo-8-amino-3-azabicyclo[3.2.1]octan-3-yl)-5-(4-chloro-2-methyl-2H-indazol-5-yl)-3-methyl-3,7-dihydro-4H-pyrrolo[2,3-d]pyrimidin-4-one] | 0.14 | 0.018
15 | Cn1cc2c(Cl)c(-c3c[nH]c4nc(N5C[C@H]6CC[C@@H](C5)[C@H]6N)n(C)c(=O)c34)ccc2n1 [Example 25, 2-(endo-8-amino-3-azabicyclo[3.2.1]octan-3-yl)-5-(4-chloro-2-methyl-2H-indazol-5-yl)-3-methyl-3,7-dihydro-4H-pyrrolo[2,3-d]pyrimidin-4-one] | 0.43 | 0.035
16 | Cn1cc2c(Cl)c(-c3c[nH]c4nc(N5C6CCCC5CNC6)n(C)c(=O)c34)ccc2n1 [Example 27, 2-(3,9-diazabicyclo[3.3.1]nonan-9-yl)-5-(4-chloro-2-methyl-2H-indazol-5-yl)-3-methyl-3,7-dihydro-4H-pyrrolo[2,3-d]pyrimidin-4-one] | 0.046 | 0.007
17 | Cn1cc2c(Cl)c(-c3c[nH]c4nc(N5CC6CCC(C5)N6)n(C)c(=O)c34)ccc2n1 [Example 28, 2-(3,8-diazabicyclo[3.2.1]octan-3-yl)-5-(4-chloro-2-methyl-2H-indazol-5-yl)-3-methyl-3,7-dihydro-4H-pyrrolo[2,3-d]pyrimidin-4-one] | 0.68 | 0.019
18 | Cn1cc2c(Cl)c(-c3c[nH]c4nc(N5C6CNCC5C6)n(C)c(=O)c34)ccc2n1 [Example 29, 2-(3,6-diazabicyclo[3.1.1]heptan-6-yl)-5-(4-chloro-2-methyl-2H-indazol-5-yl)-3-methyl-3,7-dihydro-4H-pyrrolo[2,3-d]pyrimidin-4-one] | 2.4 | 0.22
19 | Cn1cc2c(Cl)c(-c3c[nH]c4nc(N5CC6CCCC(C5)N6)n(C)c(=O)c34)ccc2n1 [Example 30, 2-(3,9-diazabicyclo[3.3.1]nonan-3-yl)-5-(4-chloro-2-methyl-2H-indazol-5-yl)-3-methyl-3,7-dihydro-4H-pyrrolo[2,3-d]pyrimidin-4-one] | 0.22 | 0.0097
20 | Cn1cc2c(Cl)c(-c3c[nH]c4nc(N5CC6CC(C5)N6)n(C)c(=O)c34)ccc2n1 [Example 31, 2-(3,6-diazabicyclo[3.1.1]heptan-3-yl)-5-(4-chloro-2-methyl-2H-indazol-5-yl)-3-methyl-3,7-dihydro-4H-pyrrolo[2,3-d]pyrimidin-4-one] | 1 | 0.04
21 | Cn1cc2c(Cl)c(-c3c[nH]c4nc(N5CC6CCC5CN6)n(C)c(=O)c34)ccc2n1 (stereo not drawn) [Example 32, 2-(2,5-diazabicyclo[2.2.2]octan-2-yl)-5-(4-chloro-2-methyl-2H-indazol-5-yl)-3-methyl-3,7-dihydro-4H-pyrrolo[2,3-d]pyrimidin-4-one] | 0.92 | 0.017
